# Measurements from US6518302B1, “Remedies” (Takara Shuzo Co., Ltd., priority 1999, dated 2003).
# Like-named read-outs stand apart in the source and are kept apart here.
# Tests used:
# [1] = test system: Human promyelocytic leukemia HL-60 cells; assay: Antiproliferation activity against HL-60 cells (MTT method); format: cell-based; conditions: 48 hour incubation; for IC50: Homo sapiens, HL-60 cells, read-out: IC50, concentration at which 50% of the proliferation is inhibited
# Procedure: Human promyelocytic leukemia HL-60 cells (ATCC CCL-240) were cultured at 37° C. in RPMI 1640 medium (Gibco) containing 10% of fetal calf serum (JRH Bioscience) which had been treated at 56° C. for 30 minutes, and suspended in the same medium at a concentration of 5000 cells/90 μl. Each 90 μl portion of the suspension was distributed into each well of a 96-well plate (Falcon). To the suspension in each well was added 10 μl of one the following samples, and incubated at 37° C. in the presence of 5% CO2. The samples were 2-, 4-, 8-, 16-, 32-, 64- or 128-dilutions of filter-sterilized 200 mM aqueous solution of the compound (2) obtained in Example 1, 50 mM aqueous solution of the compound (7), 50 mM aqueous solution of the compound (9), 100 mM aqueous solution of the compound (11), 100 mM aqueous solution of the compound (14), 20 mM aqueous solution of the compound (17), 12.5 mM aqueous solution of the compound (19) or 12.5 mM aqueous solution of the compound (21) with sterile water, as well as water. After 48 hour from the initiation of the incubation, the numbers of viable cells calculated based on the absorbance measured according to the MTT method as described in “Apoptosis Jikken Protocol” (Syuzyun-sha, Seiichi Tanuma, ed., pp. 156 (1994)) were compared each other.
# [2] = test system: IL-10 production in RAW264.7 cells; assay: Inhibition of LPS-induced IL-10 production (ELISA); format: cell-based, Mouse; conditions: 0.5 ml, 5 μl of 10 mM compound (14), 1 μl of 25 mM compound (7) or 1 μl of 50 mM compound (17), 18 hours after LPS
# Procedure: RAW264.7 cells (ATCC TIB 71) were suspended in Dulbecco's modified Eagle's medium (Bio Whittaker, 12-604F) containing 10% fetal calf serum (Gibco) at a concentration of 3×10^5 cells/ml. 0.5 ml of the suspension was added to each well of a 48-well microtiter plate and the plate was incubated at 37° C. overnight in the presence of 5% CO2. 5 μl of a solution containing the compound (14) at a concentration of 10 mM in water, 1 μl of a solution of the compound (7) at a concentration of 25 mM in dimethyl sulfoxide, or 1 μl of a solution of the compound (17) at a concentration of 50 mM in dimethyl sulfoxide was added to the well. After incubation for additional 5 hours, 5 μl of a solution of lipopolysaccharide (LPS, Sigma, L-2012) at a concentration of 100 μg/ml in water was added thereto. After incubation for 18 hours, a culture supernatant was collected. The content of interleukin 10 (IL-10) in the culture supernatant was measured using enzyme immuno sandwich assay (ELISA; Mouse IL-10 ELISA Kit, Endogen). As a control, a group to which the sample or the LPS aqueous solution was not added was provided. All of the measurements were carried out in duplicate.
# FIG. 27 illustrates the IL-10 concentrations in culture supernatants obtained by culturing under various culture conditions. The horizontal axis represents the culture conditions and the vertical axis represents the IL-10 concentration (pg/ml).
# [3] = test system: HL-60 (ATCC CCL-240) cells; assay: Analysis of DNA fragmentation; format: cell-based, Human; conditions: HL-60 cells, cultured for 24 or 48 hours (time not given)
# Procedure: HL-60 (ATCC CCL-240) cells were cultured at 37° C. in RPMI 1640 medium (Bio Whittaker) containing 10% fetal calf serum (JRH) which had been treated at 56° C. for 30 minutes and suspended in RPMI 1640 medium at a concentration of 2.5×10^5 cells/4.5 ml. […] each of aqueous solutions of the compound (2) at a concentration of 10, 50 or 100 mM, the compound (7) at a concentration of 500, 1000 or 1500 μM, the compound (9) at a concentration of 750, 1500 or 3000 μM, the compound (11) at a concentration of 750, 1500 or 3000 μM, or the compound (14) at a concentration of 750, 1500 or 3000 μM was added to 4.5 ml of the suspension. The mixtures were incubated at 37° C. for 24 hours in the presence of 5% CO2. Measurement of apoptotic cells using FACScan as described in Saibo Kogaku, Bessatsu (Cell Technology, Suppl.) Jikken Protocol Series: Apoptosis Jikken Protocol (Experimental Protocol Series: Experimental Protocols for Apoptosis) (Shujun-sha) pp. 129-130 and analysis of DNA fragmentation as described in Bio Manual UP Series: […] Apoptosis Jikken-ho (Bio Manual UP Series: Current Experimental Methods for Apoptosis) (Yodo-sha) pp. 61-63 were carried out using cells cultured for 24 or 48 hours in the same manner as that described above.
# [4] = test system: HL-60 (ATCC CCL-240) cells; assay: Viability of HL-60 cells by Trypan Blue staining; format: cell-based; conditions: Homo sapiens, read-out: Viability50, concentration that results in a viability of 50%
# Procedure: HL-60 (ATCC CCL-240) cells were cultured at 37° C. in RPMI 1640 medium (Bio Whittaker) containing 10% fetal calf serum (JRH) which had been treated at 56° C. for 30 minutes and suspended in RPMI 1640 medium at a concentration of 2.5×10^5 cells/4.5 ml.
# […] each of aqueous solutions of the compound (2) at a concentration of 10, 50 or 100 mM, the compound (7) at a concentration of 500, 1000 or 1500 μM, the compound (9) at a concentration of 750, 1500 or 3000 μM, the compound (11) at a concentration of 750, 1500 or 3000 μM, or the compound (14) at a concentration of 750, 1500 or 3000 μM was added to 4.5 ml of the suspension. The mixtures were incubated at 37° C. for 24 hours in the presence of 5% CO2.
# A portion of the cells cultured for 24 or 48 hours as described in Example 4 was stained with 0.4% Trypan Blue and examined under an optical microscope. The number of viable cells which were not stained and the number of dead cells which were stained blue were counted. The concentration of each of the compounds (2), (7), (9), (11) and (14) that results in a viability of 50% (Viability50 mM) was determined.
IC50 [1] [µM],IC50 ([4]; 24 hours) [µM],IC50 ([4]; 48 hours) [µM],Compound,antiproliferation activity against HL-60 cells [1],inhibition of LPS-induced IL-10 production [2],final concentration at which DNA fragmentation was observed [3] [µM]
205,,,"O=C[C@H](O)[C@H]1OC[C@@H](O)[C@@H]1OCc1ccccc1 [Compound (17), 4-O-benzyl-3,6-anhydro-D-galactose]",exhibited antiproliferation activities,inhibition of LPS-induced IL-10 production was observed,
104,123,101,"O=C[C@H](O)[C@H]1OC[C@@H](O)[C@@H]1OC(=O)c1ccccc1 [Compound (7), 4-O-benzoyl-3,6-anhydro-D-galactose]",exhibited antiproliferation activities,inhibition of LPS-induced IL-10 production was observed,≥ 100
113,551,150,"OCC1OC(OC2C(CO)OC(OC3C(CO)OC(OC4C(O)COC4C(O)C(O)O)C(O)C3O)C(O)C2O)C(O)C(O)C1O [Compound (14), 4-O-β-maltotoriosyl-3,6-anhydro-D-galactose]",exhibited antiproliferation activities,inhibition of LPS-induced IL-10 production was observed,≥ 75
